Laboratory results: patent publication US9085463B2, “Water-soluble functionalized fullerenes” (Marelle, LLC, priority 2011, dated 2015)

How the values were obtained:
[1] = DPPH radical-scavenging method (anti-oxidant potential); assay type: biochemical; conditions: for RD(.05 mg): amount of compound needed to deplete .05 mg of DPPH: calculated from slope; for Slope (anti-oxidant potential): mg DPPH remaining vs mg compound, linear regression, absorbance at 517 nm
Source text: The ability of a component to serve as an anti-oxidant is readily tested by a variety of methods known in the art. These analytical methods measure the radical-scavenging activity of anti-oxidants against free radicals, such as the 1,1-diphenyl-2-picrylhydrazyl (DPPH) radical. […] This absorbance disappears as the DPPH is consumed upon reduction by an antiradical compound. The disappearance of this so-called absorbance band can be followed by spectroscopic methods allowing quantitative measurements of the compound's anti-oxidant ability.
Stock solutions of 100 micromolar DPPH were prepared using 3.9 milligrams (mg) of DPPH dissolved in 100 milliliters (ml) of solution using spectroscopic grade methanol (MeOH). 3.5 ml of the DPPH solution was combined with 0.5 ml of test solutions of various concentrations of the anti-oxidant compounds. The commercial anti-oxidants, which are not water soluble, were dissolved in MeOH while their functionalized fullerene derivatives were dissolved in distilled water. The test mixture was immediately placed in a spectrometer which measured the absorbance of the mixture at 517 nm at various intervals over periods of 6 to 8 hours. Typically 4 or more samples of the anti-oxidants at various concentrations were tested. The concentrations, expressed in milligrams per milliliter (mg/ml), were selected so that some of the samples would consume more than 50% of the DPPH and others would not.
The percent of DPPH remaining at a given time interval was calculated using the following equation:
[formula] ACt is the absorbance value to the compound/DPPH solution at time t, ADPPHi is the initial value of the DPPH control blank at time t=0, and ADPPHt′ is the absorbance value of the control blank DPPH at time t=t′. The term (ADPPHt−ADPPHt′) in the above equation is the absorbance correction factor for DPPH radical decay as measured in the control blank.
The % DPPHram was recorded for each of the four concentrations at two different reaction times (30 minutes and 300 minutes). The % DPPHram was converted to milligrams (mg) of DPPH remaining and plotted as a function of milligrams (mg) of compound for each of the two reaction times. Linear regressions were calculated for each of the data sets according to the following formula: CDPPH=mt·Cc+CDPPHo
CDPPH is the mass of DPPH remaining at time t=30 minutes and time t=300 minutes, Co is the mass of the compound in the cuvette, CDPPHo is the initial concentration of the DPPH in the cuvette, and mt is the slope determined by the linear regression. The slope was used as a parameter to estimate the anti-oxidant potential of the compound. […] FIGS. 30-34 illustrate the slope (anti-oxidant potential) of commercial anti-oxidants and their functionalized fullerenol derivatives (indicated with FF in the legends).
The slope for each compound was tabulated and the amount (mg) of compound needed to deplete 0.05 mg of DPPH was calculated (see Table 1).

[2] = UV absorbing ability (UV/Vis absorbance of solutions); assay type: physicochemical; conditions: 0.5 mg/ml, avobenzone in acetone, functionalized fullerene in distilled water
Protocol: The ability of a component to absorb UV light is readily tested using spectroscopic instruments, such as a UV/Vis spectrophotometer.
5.0 milligrams (mg) of avobenzone, a UV light absorbing substance widely used in sunscreens, was dissolved in 10 milliliters (ml) of reagent grade acetone. […] UV absorbance (A) of the resulting solutions was measured at 290 nm, 320 nm, and 400 nm.

| SMILES | RD(.05 mg): amount of compound needed to deplete .05 mg of DPPH ([1]; 30 minutes reaction time) [mg] | Slope (anti-oxidant potential) ([1]; 30 minutes reaction time) [mg/mg] | RD(.05 mg): amount of compound needed to deplete .05 mg of DPPH ([1]; 300 minutes reaction time) [mg] | Slope (anti-oxidant potential) ([1]; 300 minutes reaction time) [mg/mg] | Absorbance (A) 290 nm ([2]; 290 nm) | Absorbance (A) 320 nm ([2]; 320 nm) | Absorbance (A) 400 nm ([2]; 400 nm) |
| --- | --- | --- | --- | --- | --- | --- | --- |
| CCCCC/C=C\C/C=C\C/C=C\C/C=C\CCCC(=O)O [Arachidonic Acid, arachidonic acid, reference compound] | 250.00 | -0.0002 | 45.45 | -0.0011 |  |  |  |
| COc1ccc(C(=O)CC(=O)c2ccc(C(C)(C)C)cc2)cc1 [Avobenzone, avobenzone] |  |  |  |  | 0.297 | 0.521 | 0.376 |
| COC1=C(OC)C(=O)C(C/C=C(\C)CC/C=C(\C)CC/C=C(\C)CC/C=C(\C)CC/C=C(\C)CC/C=C(\C)CC/C=C(\C)CC/C=C(\C)CC/C=C(\C)CCC=C(C)C)=C(C)C1=O [Coenzyme Q10, coenzyme Q10, reference compound] | 125.00 | -0.0004 | 23.81 | -0.0021 |  |  |  |
| CCCCC/C=C\C/C=C\CCCCCCCC(=O)O [Linoleic Acid, linoleic acid, reference compound] | 6250.00 | -0.000008 | 100.00 | -0.0005 |  |  |  |
| CC/C=C\C/C=C\C/C=C\CCCCCCCC(=O)O [Linolenic Acid, α-linolenic acid, reference compound] | 250.00 | -0.0002 | 45.45 | -0.0011 |  |  |  |
